# Measured values published in paper PMC6461236, “The three dimensional structure of Bovine Salivary Protein 30b (BSP30b) and its interaction with specific rumen bacteria” (PLoS ONE, 2019).
# Target: T1, BSP30b (Bovine Salivary Protein 30b) (Bos taurus, UniProt P79125)
# T1 construct: gene SPLUNC2B; E. coli BL21, pProEx Htb (BamHI/XhoI), HiTrap Ni, MONO Q and SEC purified; synthetic F61M/F115M double mutant; model covers about residues 40-235
# T1 sequence (P79125 20-240): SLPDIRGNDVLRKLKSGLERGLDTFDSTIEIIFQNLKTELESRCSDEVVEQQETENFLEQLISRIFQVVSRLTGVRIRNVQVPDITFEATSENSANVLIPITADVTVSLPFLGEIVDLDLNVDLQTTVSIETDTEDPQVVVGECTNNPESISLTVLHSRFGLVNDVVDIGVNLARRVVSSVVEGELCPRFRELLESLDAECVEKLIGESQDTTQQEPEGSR
# Assay: X-ray co-crystal structure, […] Å
# Type: binding
# Details: co-crystallised at pH 7.5 after SEC removal of unbound ligand; in hydrophobic channel, about 80% occupancy in dominant site, weaker in second molecule of ASU; contacts ASP112 and ILE113
smiles,measurement,value
CCCCCCCC/C=C\CCCCCCCC(=O)O [oleic acid],"X-ray co-crystal structure, 2.30 Å",The only structure that revealed elongated stretches of electron density within the hydrophobic tunnel
